Consider one molecule from publication PMC9415947 (Pharmaceuticals, 2022).

Bounds are passed on as bounds.

Data set [1] in a line: Bioavailability in mice. The note with it: mouse, in vivo, depending on the formulation form, read-out: bioavailability F.
In data set [2] the target is T1, PI3Kα (Homo sapiens, UniProt P42336).
T1 construct: purchased Merck Millipore (methods text)
Description: In vitro PI3K inhibition assay (ADP-Glo kinase assay), PI3Kα. The format is biochemical. As for the experimental part:
(§1) All compounds were tested in a biochemical assay that measured the inhibition of phosphatidylinositol […] production by PI3K isoforms using the ADP-Glo kinase assay (Promega). In addition, the effects of synthesized compounds on B cell proliferation were measured.
(§2) The potency and selectivity of compounds were assessed by measuring the ability of PI3K kinases to convert ATP to ADP during an enzymatic reaction in the presence of decreasing doses of tested compounds. The experiments were carried out using the ADP-Glo kinase assay kit (Promega), according to the manufacturer’s protocol. PI3Kα, PI3Kβ, PI3Kδ, and PI3Kγ have been purchased from Merck Millipore and phosphoinositol-4,5-bisphosphate (PIP2) lipid vesicles with phosphoserine from ThermoFisher Scientific were used as a substrate in the enzymatic reaction.
(§3) After the reaction, the ADP-Glo reagent and the kinase detection reagent were added sequentially with 40 min of incubation (25 °C, 600 rpm) after adding each reagent. Finally, the luminescence intensity was measured and the IC50 was calculated using GraphPad Prism 7 software. The presented results are the mean value of IC50 from at least two independent experiments.

The target in data set [3] is T2, PI3Kγ (Homo sapiens, UniProt P48736).
T2 construct: purchased Merck Millipore
Put plainly: In vitro PI3K inhibition assay (ADP-Glo kinase assay), PI3Kγ. The format is biochemical. On the technique in general: In ADP-Glo the light output rises with the ADP produced.

Data set [4] can be described thus: Plasma protein binding, mice. The format is in vitro ADME. The following applies: mouse. The source says:
Table 5 Selected parameters measured for CPL302415 (6). | column: Plasma Protein Binding [%] / Mice

Data set [5] can be described thus: Kinetic solubility, shake-flask protocol. The note with it: aqueous buffer, kinetic from dmso stock; phosphate-buffered saline pH 7.4, 25 °C. The format is physicochemical.
Data set [6] is described as follows: Metabolic stability in human liver microsomes (HLM). The format is in vitro ADME. The note with it: read-out: Metabolic Stability HLM t½. (Microsomes from liver hold many membrane-bound enzymes, among them those of drug oxidation.)
Data set [7] in a line: Plasma protein binding, human. The format is in vitro ADME. The source says: Table 5 Selected parameters measured for CPL302415 (6). | column: Plasma Protein Binding [%] / Human
Data set [8] can be described thus: Metabolic stability in mouse liver microsomes (MLM). The format is in vitro ADME, mouse (CD-1).
Data set [9] can be described thus: Plasma protein binding, monkey. The format is in vitro ADME. The source says: Table 5 Selected parameters measured for CPL302415 (6). | column: Plasma Protein Binding [%] / Monkey
In data set [10] the target is T3, PI3Kδ (Homo sapiens, UniProt O00329).
T3 construct: purchased Merck Millipore
Description: In vitro PI3K inhibition assay (ADP-Glo kinase assay), PI3Kδ. The format is biochemical. The note with it: mean of two independent experiments.

Data set [11] deals with T4, PI3Kβ (Homo sapiens, UniProt P42338).
T4 construct: purchased Merck Millipore
Description: In vitro PI3K inhibition assay (ADP-Glo kinase assay), PI3Kβ. The format is biochemical. Here is the method:
as §1, §2, §3

In data set [12] the test system is CD19+ B cells. Put plainly: B cell (CD19+) proliferation assay, CFSE flow cytometry. The format is cell-based. The note with it: Homo sapiens, B-cell, 96 h, read-out: IC50 CD19. Here is the method:
CD19 cells were isolated from PBMCs using magnetic beads (Stem Cell (Vancouver, Canada)) and then labeled with 2 µM of CFSE (Invitrogen (Waltham, MA, USA)).
After 4 days, cells were stained with LIVE/DEAD™ kit (Invitrogen (Waltham, MA, USA)). Samples were acquired using Attune NxT flow cytometer (Invitrogen) and analyzed using FlowJo software. Each biological assay was performed with cells isolated from a different donor. The presented results constitute the average percentage values of proliferating cells from 3 independent experiments.
Human PBMCs were isolated from buffy coats of healthy donors obtained from the Regional Blood Donation and Blood Medicine Center in Warsaw. Lymphocytes B: CD19+ cells were isolated from PBMCs on magnetic beads (Stem Cell), labeled with 2 µM CFSE (Invitrogen), and seeded on a 96-well plate (1 × 10^5 cells/well). B cells were activated by 2 µg/mL of αIgM (Jackson ImmunoResearch) and 1 µg/mL of ODN2006 (InvivoGen). Cells were incubated with increasing concentrations of compounds (range 0.03–10,000 nM). After 4 days, B cells were stained with LIVE/DEAD™ kit (Invitrogen), acquired using the Attune NxT flow cytometer (Invitrogen), and analyzed using FlowJo10 software. For data normalization, the percentage value of proliferating cells in each sample was divided by the average percentage value of positive control in a single experiment. IC50 values were calculated using a three-parameter dose–response inhibition function in GraphPad Prism.
(In general: In flow cytometry, cells or beads pass a laser one at a time.)

The nature of data set [13]: Bioavailability in dogs. The following applies: dog, in vivo, depending on the formulation form, read-out: bioavailability F.
The nature of data set [14]: Plasma protein binding, range across species. The format is in vitro ADME. The note with it: human, monkey, mouse, rat, range depending on the species, read-out: plasma protein binding (PPBs).
The nature of data set [15]: Plasma protein binding, rat. The format is in vitro ADME. The source says: Table 5 Selected parameters measured for CPL302415 (6). | column: Plasma Protein Binding [%] / Rat
A short description of data set [16]: PAMPA permeability. The format is in vitro ADME.
The mark [17] stands for this setting: mean of two independent experiments.

T1 sequence (P42336 whole entry): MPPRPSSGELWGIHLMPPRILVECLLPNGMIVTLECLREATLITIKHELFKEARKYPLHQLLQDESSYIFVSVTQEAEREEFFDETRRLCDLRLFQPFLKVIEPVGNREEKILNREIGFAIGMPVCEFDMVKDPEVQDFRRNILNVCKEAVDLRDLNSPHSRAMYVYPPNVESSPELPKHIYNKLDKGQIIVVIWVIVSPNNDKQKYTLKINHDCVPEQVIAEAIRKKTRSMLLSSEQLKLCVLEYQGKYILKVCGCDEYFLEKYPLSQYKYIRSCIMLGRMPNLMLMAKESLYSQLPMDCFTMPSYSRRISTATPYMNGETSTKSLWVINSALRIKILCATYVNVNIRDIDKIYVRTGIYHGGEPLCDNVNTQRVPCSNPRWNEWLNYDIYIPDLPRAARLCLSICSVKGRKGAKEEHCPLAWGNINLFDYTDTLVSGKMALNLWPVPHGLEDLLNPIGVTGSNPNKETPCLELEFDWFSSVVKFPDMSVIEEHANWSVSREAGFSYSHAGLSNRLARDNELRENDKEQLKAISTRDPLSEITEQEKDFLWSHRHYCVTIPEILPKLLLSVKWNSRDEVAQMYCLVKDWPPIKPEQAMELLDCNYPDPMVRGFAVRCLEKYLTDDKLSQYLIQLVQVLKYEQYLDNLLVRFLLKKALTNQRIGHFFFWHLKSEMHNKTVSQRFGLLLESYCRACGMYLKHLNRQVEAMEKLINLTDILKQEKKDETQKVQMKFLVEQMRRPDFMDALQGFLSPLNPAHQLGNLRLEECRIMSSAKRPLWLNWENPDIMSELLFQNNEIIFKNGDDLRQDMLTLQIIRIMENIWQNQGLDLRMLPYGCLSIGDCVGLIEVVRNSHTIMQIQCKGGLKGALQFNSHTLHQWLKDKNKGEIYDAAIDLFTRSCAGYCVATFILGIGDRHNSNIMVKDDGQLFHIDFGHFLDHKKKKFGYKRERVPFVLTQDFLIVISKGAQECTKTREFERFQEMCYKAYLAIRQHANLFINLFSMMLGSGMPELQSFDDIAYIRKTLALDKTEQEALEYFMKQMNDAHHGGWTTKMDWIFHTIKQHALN
T1 sequence (P27986 whole entry partner): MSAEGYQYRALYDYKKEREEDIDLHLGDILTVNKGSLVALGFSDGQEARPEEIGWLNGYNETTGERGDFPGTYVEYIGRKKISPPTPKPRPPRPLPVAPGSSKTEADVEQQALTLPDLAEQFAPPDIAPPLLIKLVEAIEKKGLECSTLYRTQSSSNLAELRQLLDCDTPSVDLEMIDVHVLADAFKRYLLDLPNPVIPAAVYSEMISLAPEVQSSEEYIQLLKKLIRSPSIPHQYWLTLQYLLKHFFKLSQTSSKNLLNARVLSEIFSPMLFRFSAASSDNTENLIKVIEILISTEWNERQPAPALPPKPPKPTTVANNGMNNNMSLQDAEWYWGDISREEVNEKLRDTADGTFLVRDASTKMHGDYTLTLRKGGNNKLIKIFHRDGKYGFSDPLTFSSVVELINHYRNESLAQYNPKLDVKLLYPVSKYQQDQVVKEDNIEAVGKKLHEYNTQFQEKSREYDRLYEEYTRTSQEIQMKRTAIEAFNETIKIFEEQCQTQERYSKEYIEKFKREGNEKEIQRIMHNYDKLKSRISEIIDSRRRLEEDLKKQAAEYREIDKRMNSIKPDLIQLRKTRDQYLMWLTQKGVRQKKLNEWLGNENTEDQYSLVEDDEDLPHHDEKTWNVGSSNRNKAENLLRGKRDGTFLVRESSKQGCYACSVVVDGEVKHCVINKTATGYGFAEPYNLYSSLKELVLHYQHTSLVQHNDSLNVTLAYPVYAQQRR
T4 sequence (P42338 whole entry, looked up): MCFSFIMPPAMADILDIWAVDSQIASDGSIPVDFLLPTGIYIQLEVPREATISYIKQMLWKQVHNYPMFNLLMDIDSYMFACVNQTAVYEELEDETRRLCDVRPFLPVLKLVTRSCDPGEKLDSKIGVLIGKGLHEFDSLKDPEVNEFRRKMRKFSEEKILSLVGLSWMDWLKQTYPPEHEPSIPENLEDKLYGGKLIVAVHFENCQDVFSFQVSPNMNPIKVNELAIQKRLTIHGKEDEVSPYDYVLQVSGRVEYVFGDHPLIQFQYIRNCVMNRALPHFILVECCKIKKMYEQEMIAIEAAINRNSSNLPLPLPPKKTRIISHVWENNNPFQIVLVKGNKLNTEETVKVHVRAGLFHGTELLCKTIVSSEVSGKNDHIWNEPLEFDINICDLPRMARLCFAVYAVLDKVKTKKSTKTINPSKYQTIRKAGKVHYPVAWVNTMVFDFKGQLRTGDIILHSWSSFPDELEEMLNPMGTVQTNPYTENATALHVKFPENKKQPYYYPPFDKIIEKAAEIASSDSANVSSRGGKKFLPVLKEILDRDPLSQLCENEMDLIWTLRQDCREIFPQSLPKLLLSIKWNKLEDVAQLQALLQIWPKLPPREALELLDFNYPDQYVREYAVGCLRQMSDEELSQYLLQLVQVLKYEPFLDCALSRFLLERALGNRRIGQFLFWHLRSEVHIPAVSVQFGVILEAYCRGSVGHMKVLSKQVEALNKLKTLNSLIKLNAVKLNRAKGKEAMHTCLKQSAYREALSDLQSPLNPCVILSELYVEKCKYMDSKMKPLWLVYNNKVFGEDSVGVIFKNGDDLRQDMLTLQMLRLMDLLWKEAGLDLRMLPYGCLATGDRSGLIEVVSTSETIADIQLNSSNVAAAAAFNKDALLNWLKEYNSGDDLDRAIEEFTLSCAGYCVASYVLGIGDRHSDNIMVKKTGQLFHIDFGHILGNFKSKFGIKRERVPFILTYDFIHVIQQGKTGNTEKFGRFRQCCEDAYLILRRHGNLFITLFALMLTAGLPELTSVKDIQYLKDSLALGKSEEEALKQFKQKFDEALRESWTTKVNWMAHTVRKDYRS
T2 sequence (P48736 whole entry): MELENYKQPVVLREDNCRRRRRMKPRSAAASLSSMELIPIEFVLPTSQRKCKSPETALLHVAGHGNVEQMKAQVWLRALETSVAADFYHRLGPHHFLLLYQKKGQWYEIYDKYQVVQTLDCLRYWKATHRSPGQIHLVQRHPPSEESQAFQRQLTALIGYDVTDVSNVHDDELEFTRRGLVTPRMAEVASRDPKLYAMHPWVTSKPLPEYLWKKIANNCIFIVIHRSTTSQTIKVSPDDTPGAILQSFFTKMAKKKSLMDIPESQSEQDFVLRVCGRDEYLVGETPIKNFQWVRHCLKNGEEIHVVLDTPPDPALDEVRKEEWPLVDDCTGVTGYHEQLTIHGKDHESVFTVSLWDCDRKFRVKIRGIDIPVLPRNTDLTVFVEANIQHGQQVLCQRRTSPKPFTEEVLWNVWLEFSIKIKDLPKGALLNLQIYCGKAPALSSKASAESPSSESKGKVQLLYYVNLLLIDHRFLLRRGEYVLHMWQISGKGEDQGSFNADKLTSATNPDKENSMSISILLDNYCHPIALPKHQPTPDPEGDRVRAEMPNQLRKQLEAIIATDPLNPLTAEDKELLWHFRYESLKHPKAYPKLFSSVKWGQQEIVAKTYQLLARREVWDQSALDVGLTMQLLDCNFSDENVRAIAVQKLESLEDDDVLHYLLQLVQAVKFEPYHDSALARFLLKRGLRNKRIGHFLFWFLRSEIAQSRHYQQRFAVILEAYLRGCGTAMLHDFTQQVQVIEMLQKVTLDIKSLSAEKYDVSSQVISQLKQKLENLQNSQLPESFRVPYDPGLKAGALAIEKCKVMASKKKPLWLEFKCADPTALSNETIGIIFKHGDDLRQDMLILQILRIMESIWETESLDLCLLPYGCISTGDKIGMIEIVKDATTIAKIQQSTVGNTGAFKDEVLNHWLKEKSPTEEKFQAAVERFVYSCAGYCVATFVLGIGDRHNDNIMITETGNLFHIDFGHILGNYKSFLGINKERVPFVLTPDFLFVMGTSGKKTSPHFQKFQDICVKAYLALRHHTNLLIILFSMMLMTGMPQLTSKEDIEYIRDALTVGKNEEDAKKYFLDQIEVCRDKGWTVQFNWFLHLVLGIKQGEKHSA
T3 sequence (O00329 whole entry, looked up): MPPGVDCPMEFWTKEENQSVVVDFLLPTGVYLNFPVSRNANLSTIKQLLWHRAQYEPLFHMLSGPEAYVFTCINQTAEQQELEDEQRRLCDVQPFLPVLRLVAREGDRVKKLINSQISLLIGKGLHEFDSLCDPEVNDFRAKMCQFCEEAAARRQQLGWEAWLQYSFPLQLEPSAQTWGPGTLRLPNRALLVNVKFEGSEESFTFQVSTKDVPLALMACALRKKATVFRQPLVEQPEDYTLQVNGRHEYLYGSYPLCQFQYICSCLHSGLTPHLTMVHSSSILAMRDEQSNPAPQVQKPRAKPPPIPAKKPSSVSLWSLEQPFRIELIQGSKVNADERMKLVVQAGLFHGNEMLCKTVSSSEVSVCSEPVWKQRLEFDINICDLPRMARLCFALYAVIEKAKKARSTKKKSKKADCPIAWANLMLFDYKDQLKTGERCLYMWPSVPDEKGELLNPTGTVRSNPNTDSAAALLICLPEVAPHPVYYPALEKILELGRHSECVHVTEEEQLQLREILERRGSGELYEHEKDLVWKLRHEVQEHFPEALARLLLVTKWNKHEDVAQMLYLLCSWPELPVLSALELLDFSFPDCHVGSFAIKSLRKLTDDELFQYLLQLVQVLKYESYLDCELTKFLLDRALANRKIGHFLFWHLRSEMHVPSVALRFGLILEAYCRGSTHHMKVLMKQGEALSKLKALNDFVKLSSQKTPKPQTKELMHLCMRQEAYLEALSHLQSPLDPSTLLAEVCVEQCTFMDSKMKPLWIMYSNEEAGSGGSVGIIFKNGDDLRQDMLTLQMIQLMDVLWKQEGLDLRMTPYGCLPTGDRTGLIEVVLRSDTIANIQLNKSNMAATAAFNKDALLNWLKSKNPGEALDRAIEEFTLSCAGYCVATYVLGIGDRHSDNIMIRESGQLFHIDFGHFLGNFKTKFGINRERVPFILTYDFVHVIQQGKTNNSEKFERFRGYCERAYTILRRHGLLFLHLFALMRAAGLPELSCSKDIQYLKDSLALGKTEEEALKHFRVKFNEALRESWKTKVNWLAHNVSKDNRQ

Take `CC(C)(C)N1CCN(Cc2cc3nc(-n4c(C(F)F)nc5ccccc54)cc(N4CCOCC4)n3n2)CC1` [Compound 6, 1-{2-[(4-tert-butylpiperazin-1-yl)methyl]-7-(morpholin-4-yl)pyrazolo[1,5-a]pyrimidin-5-yl}-2-(difluoromethyl)-1H-benzimidazole]: the bioavailability was over 55% in data set [1] and over 90% in data set [13]. Besides, the concentration for half-maximal inhibition (IC50) in data set [2] is 1430 nM; in [3] (setting [17]), 16900 nM; in data set [10], 18 nM; in data set [11] (setting [17]) it was 25500 nM; in [12] it was 41 nM. For the same molecule, the “Fold Selectivity α/δ” value in data set [2] (ratio IC50 PI3Kα / IC50 PI3Kδ) is recorded as 79. For the same molecule, the “Fold Selectivity γ/δ” value in data set [3] (ratio IC50 PI3Kγ / IC50 PI3Kδ) is given as 939. The fraction unbound in data set [4] is 0.17; in [7], 0.21; in data set [9], 0.19; in data set [14] it was 0.17 to 0.21; in data set [15] it was 0.18. The solubility (kinetic) at 24 h in data set [5] was over 500 µM. In addition, the half-life at 1 μM was 2.42 h in [6] and 6.3 h in data set [8] (CD-1, read-out: Metabolic Stability MLM t½). In data set [8] (CD-1, read-out: Metabolic Stability MLM CL), the microsomal CLint at 1 μM is 3.7 µL/min/mg. For the same molecule, the “Fold Selectivity β/δ” value in data set [11] (ratio IC50 PI3Kβ / IC50 PI3Kδ) stood at 1415. In [16], this molecule displayed an apparent permeability (Papp) of 13.3 ×10⁻⁶ cm/s.

The bioavailability is the share of a dose that reaches the circulation, judged against a reference dose that is usually intravenous. As a reminder, the IC50 is the concentration needed to halve the response being measured. The term kinetic solubility denotes the concentration staying in solution when a stock, usually in DMSO, is diluted into the medium. For orientation: Papp means a coefficient for how fast a substance crosses the barrier.
